Measured values from US9023850B2, “Nematocidal sulfonamides” (E I du Pont de Nemours and Company, priority 2010, dated 2015).

tested on: cucumber seedlings; assay: Test A: phytotoxicity to the cucumber seedlings of the test units; format: in vivo; conditions: 250 ppm active ingredient applied to soil, 7 days
Description: Control of the southern root-knot nematode (Meloidogyne incognita) through contact and/or systemic means was evaluated in test units consisting of small open containers filled with a sandy soil mixture and cucumber seedlings. Test compounds were formulated using a solution containing 50% acetone and 50% water. Test compounds were applied directly to the soil of the test units at a concentration of 250 ppm active ingredient. Each test was replicated 3 times. After treatment, the test units were allowed to dry for 1 hour, after which time about 250 second-stage juvenile (J2) larvae were pipetted into the soil. The test units were held at 27° C. and watered as needed for 7 days. Nematocidal efficacy was determined by the amount of root gall formation observed when compared to an untreated control. No gall formation was indicative of 100% nematode control. Gall formation equivalent to that found in the untreated control was indicative of 0% control. No nematode control rating was given to compounds showing significant phytotoxicity.

| SMILES | phytotoxicity |
| --- | --- |
| COc1ccc(Cl)c(S(=O)(=O)NC(=O)c2cn3cc(C(F)(F)F)ncc3n2)c1 [Compound 1, N-[(2-chloro-5-methoxyphenyl)sulfonyl]-6-(trifluoromethyl)imidazo[1,2-a]pyrazine-2-carboxamide] | no significant phytotoxicity |
| O=C(NS(=O)(=O)c1cc(C(F)(F)F)ccc1Cl)c1cn2cc(Br)cnc2n1 [Compound 4, 6-bromo-N-[[2-chloro-5-(trifluoromethyl)phenyl]sulfonyl]imidazo[1,2-a]pyrimidine-2-carboxamide] | no significant phytotoxicity |
| O=C(NS(=O)(=O)c1cc(C(F)(F)F)ccc1Cl)c1cn2cc(C(F)(F)F)cnc2n1 [Compound 6, N-[[2-chloro-5-(trifluoromethyl)phenyl]sulfonyl]-6-(trifluoromethyl)imidazo[1,2-a]pyrimidine-2-carboxamide] | no significant phytotoxicity |
